Measured values reported in patent US7601717B2, “Pterin analogs” (BioMarin Pharmaceutical Inc., priority 2008, dated 2009).
Where a name gives a salt, the structure may show the parent alone.

What was measured:
eNOS = eNOS (Homo sapiens, UniProt P29474); assay: Cell-free eNOS activity assay reconstituted from purified components; format: biochemical; conditions: 1, 10, 100 μM, 90 minutes at 37° C., nitrite by DAN fluorescence
Procedure: Also tested was the effect of BH4 analogs compared to free BH4 on stimulation of eNOS activity in a cell-free assay system reconstituted from purified components. 90 μL of reaction mixture (25 mM Tris-HCL, pH7.4, 1 μM FAD, 1 μM FMN, 100 μM L-Arginine, 2.5 mM CaCl2, 1 mM NADPH, 0.04 mg/ml Calmodulin) was mixed with 5 μl of eNOS (15 units/ml) and 5 μl of BH4 or BH4 analogs (1, 10, 100 μM), followed by incubation in a 37° C. water bath for 90 minutes. Then 100 μl of water and 20 μl of the nitrite fluorescent probe DAN (2,3-diaminonaphthalene, 316 μM) were added to each reaction and incubated at room temperature for 10 minutes. The dye DAN reacts with nitrite to yield the fluorescent product naphthotriazole. The reaction was then stopped by adding 10 μl of NaOH (2.8 M), and the fluorescence of the samples was read using excitation frequency 375 nm and emission frequency 415 nm.

[1] = Pharmacokinetics and bioavailability, single intravenous or oral doses, partial Latin square crossover; format: in vivo, male cynomolgus monkeys; conditions: male, cynomolgus monkey, plasma; intravenous; title 5 mg/kg, text 2 mg/kg; n=6
[2] = HPLC with ECD and fluorescence detection of biopterins in plasma of dosed monkeys; format: in vivo, cynomolgus monkeys; conditions: plasma 2 hours post-administration, 2% MeOH mobile phase, FIG. 16
Procedure: An HPLC method using Electrochemical Detection (ECD) and Fluorescence (FL) detection is advantageous as it allows for the measurement of each of the discrete biopterin compounds (BH4, BH2 and B) as well as analog, such as prodrug, forms (e.g., Val-BH4, Val-BH2, and Val-B).
The concentrations of different biopterins (BH4, BH2 and B) and Val-biopterins are determined by initially using reverse phase HPLC for separation, followed by ECD and FL detection. BH4 and Val-BH4 are measured using ECD in which BH4 and Val-BH4 are oxidized by electrode 1 to quinonoid dihydrobiopterin forms (qBH2 or Val-qBH2, respectively), a short-lived dihydrobiopterin intermediate, and then reduced back to BH4 or Val-BH4 at electrode 2. The detector then uses the current generated by this reduction reaction to determine the concentration of BH4 or Val-BH4, respectively. BH2, Val-BH2, B and Val-B are measured by fluorescence detection. […] This is desirable because BH2 is not fluorescently active or easily measured and must be converted to biopterin, which is easily measured using fluorescence. […] In one embodiment, the biopterin analogs, such as valine biopterin derivatives, are measured using a 10% MeOH-containing mobile phase whereas the biopterins are measured using a 2% MeOH-containing mobile phase.
The compound of Example 5 can be detected in buffer and by extraction using this assay. […]

[3] = test system: Spontaneously Hypertensive rats (SHR); assay: Anti-hypertensive effect, tail-cuff systolic blood pressure in SHR; format: in vivo, rat; conditions: SHR; for decrease in systolic blood pressure (SBP): 3 weeks
Procedure: This study was to determine if the BH4 analogs have a similar hypotensive effect and to determine the steady state pharmacokinetics (PK) profiles of plasma BH4 concentrations.
Male Wistar-Kyoto (WKY) rats and SHR rats (Elevage Janvier, France, 7 weeks old) were housed seven days prior to the beginning of experiments with free access to standard chow and water and maintained on an inversed 12 h dark/light cycle (10:00/22:00). After a one week acclimation period, the animals were trained to the tail-cuff system during one week (3 sessions). The following week, two baseline measurements of blood pressure were performed.
The rats (10 weeks old) then received respective treatments of water, vehicle, 2, 10, or 30 mg/kg/day of BH4 analog (Example 5, Val-BH4) or 100 mg/kg/day BH4 by oral gavage (8 mL/kg, dissolved in 100 μM ascorbic acid) performed once a day during 21 days of treatment. The doses of BH4 analog were prepared as mg/kg equivalents of BH4 (calculated using BH4 and BH4 analog 2HCl molecular weights). Body weight was monitored 3 times per week and the most recent body weight was used to adjust drug and vehicle daily intake. Seven experimental groups of rats were evaluated: Group 1—normotensive WKY rats and water gavage; Group 2—hypertensive SHR rats and water gavage; Group 3—hypertensive SHR rats and vehicle gavage; Group 4—hypertensive SHR rats and BH4 100 mg/kg/day gavage; Group 5—hypertensive SHR rats and BH4 analog 2 mg/kg/day gavage; Group 6—hypertensive SHR rats and BH4 analog 10 mg/kg/day gavage; Group 7—hypertensive SHR rats and 30 mg/kg/day BH4 analog gavage. To account for animal loss or animal disqualification during experimental handling, 10 rats were used in each group, with the expectation to obtain interpretable results for at least 8. Systolic blood pressure (SBP) and heart rate (HR) were measured twice weekly during the 3-week treatment period.
Systolic blood pressure (SBP) and heart rate (HR) were measured using the tail-cuff method, twice before the beginning of the treatment and twice weekly during the 3 week treatment period (6 measurements during the treatment period). Rats were placed in a plastic restraint and warmed to […]. A pneumatic pulse sensor was attached to the tail. After cuff inflation, SBP was measured and HR was determined by counting pulse numbers per minute. Data for each rat was taken an average of at least 4 stable readings. At least 10 cuff inflations were performed for each BP measurement.

AUC(0-inf) [1]: 5.24 µM·h | AUC(0-t) [1]: 4.17 µM·h | Cmax [1]: 13.1 µM | Tmax [1]: 4.8 min | height of the BH4 peak compared with monkeys administered BH4 [2]: several fold higher
SMILES: CC(C)[C@H](N)C(=O)O[C@@H](C)[C@H](O)[C@H]1CNc2nc(N)[nH]c(=O)c2N1 [Example 5, 2-Amino-3-methyl-butyric acid 2-(2-amino-4-oxo-3,4,5,6,7,8-hexahydro-pteridin-6-yl)-2-hydroxy-1-methyl-ethyl ester dihydrochloride]
potentiation of eNOS activity (eNOS): did not significantly potentiate eNOS activity | decrease in systolic blood pressure (SBP) ([3]; 2 mg/kg/day oral gavage (BH4 equivalents)): 6.8 mmHg | decrease in SBP compared with BH4 100 mg/kg ([3]; 10 mg/kg/day during 3 weeks, FIG. 31): decreased SBP to the same extent as a 10-fold greater dose of BH4 | decrease in systolic blood pressure (SBP) ([3]; 10 mg/kg/day oral gavage (BH4 equivalents)): 13.9 mmHg | decrease in systolic blood pressure (SBP) ([3]; 30 mg/kg/day oral gavage (BH4 equivalents)): 13.7 mmHg
